A word on the IC50: it is the concentration at which inhibition is half-maximal.

This experiment deals with T1, G9a methyltransferase (Homo sapiens, UniProt Q96KQ7).
T1 sequence (Q96KQ7 1-1210): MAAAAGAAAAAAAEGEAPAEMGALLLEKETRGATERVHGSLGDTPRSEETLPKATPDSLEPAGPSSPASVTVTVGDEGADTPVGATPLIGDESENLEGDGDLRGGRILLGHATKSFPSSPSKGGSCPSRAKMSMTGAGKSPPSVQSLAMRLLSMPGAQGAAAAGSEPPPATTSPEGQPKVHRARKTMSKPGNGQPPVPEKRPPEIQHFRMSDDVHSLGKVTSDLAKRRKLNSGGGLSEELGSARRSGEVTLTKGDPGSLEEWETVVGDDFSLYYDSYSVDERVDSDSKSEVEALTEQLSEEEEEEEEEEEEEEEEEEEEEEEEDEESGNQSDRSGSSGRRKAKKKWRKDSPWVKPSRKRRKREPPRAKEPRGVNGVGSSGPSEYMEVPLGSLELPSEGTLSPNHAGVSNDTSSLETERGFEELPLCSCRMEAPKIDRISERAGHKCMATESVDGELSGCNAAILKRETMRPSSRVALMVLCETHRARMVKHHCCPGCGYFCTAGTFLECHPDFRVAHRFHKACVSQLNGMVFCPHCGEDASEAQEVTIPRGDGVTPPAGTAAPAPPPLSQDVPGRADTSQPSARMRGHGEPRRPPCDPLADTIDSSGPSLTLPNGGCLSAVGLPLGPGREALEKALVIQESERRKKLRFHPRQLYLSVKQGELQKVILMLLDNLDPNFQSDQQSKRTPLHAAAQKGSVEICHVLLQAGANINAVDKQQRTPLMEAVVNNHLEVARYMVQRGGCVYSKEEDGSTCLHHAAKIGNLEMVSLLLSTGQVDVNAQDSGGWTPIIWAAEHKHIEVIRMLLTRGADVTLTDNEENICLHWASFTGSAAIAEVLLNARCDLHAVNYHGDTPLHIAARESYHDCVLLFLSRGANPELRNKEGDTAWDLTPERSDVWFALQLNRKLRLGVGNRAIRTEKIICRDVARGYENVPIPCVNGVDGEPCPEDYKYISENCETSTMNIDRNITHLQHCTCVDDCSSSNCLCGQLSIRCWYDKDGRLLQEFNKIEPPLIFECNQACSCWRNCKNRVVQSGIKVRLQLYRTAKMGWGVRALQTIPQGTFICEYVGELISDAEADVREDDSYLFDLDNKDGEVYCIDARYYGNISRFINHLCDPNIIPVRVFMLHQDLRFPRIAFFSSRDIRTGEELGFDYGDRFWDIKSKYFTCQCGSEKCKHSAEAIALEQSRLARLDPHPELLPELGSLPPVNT
Kind of experiment: G9a histone methyltransferase inhibitor dose response, coupled-enzyme AMP fluorescent immunodetection assay (FIG. 6). In kind it is biochemical.

Procedure: In addition, inhibitor potencies were determined with G9a HMT.
HMT reactions were run for 60 minutes followed by addition of quench and detection reagents including the SAM-SAH coupling enzyme mixture and the Transcreener® AMP2/GMP2 Assay monoclonal antibody and tracer.

For the molecule `CN1C(=O)[C@@]23C[C@]4([C@]56C[C@@]78SS[C@@](CO)(C(=O)N7[C@H]5Nc5ccccc56)N(C)C8=O)c5ccccc5N[C@@H]4N2C(=O)[C@]1(CO)SS3` [chaetocin], half-maximal inhibition (IC50) was put at 770 µM.

For the origin of these results see patent publication US20120244549A1, “Detection Method for Methyltransferase Enzymatic Activity” (BELLBROOK LABS, LLC, priority 2011, published 2012).
